{
  "source": "patent US11331368B2",
  "about": "“Angiotensin receptor agonists and uses thereof” (Monash University, priority 2017, dated 2022)",
  "tested_on": "human cardiac fibroblasts",
  "test": "TGF-β1-induced collagen production in human cardiac fibroblasts (Western blot)",
  "type": "cell-based",
  "conditions": "co-treated with TGF-β1 for 3 days, increasing concentrations up to 1 μM",
  "protocol": "D) Human cardiac fibroblasts (HCFs) were treated with TGFβ1 to induce a pro-fibrotic phenotype state in cell culture, exemplified by increased collagen-1 production, measured by Western blot. HCFs were treated with TGFβ1 alone, or in the presence of an AT2R agonist for 3 days, and the ability of AT2R agonists to inhibit TGFβ1-induced collagen-1 production was measured.\nCommercially available human cardiac fibroblasts (HCF, Catalog #6300, Sciencell, Calif., USA) were grown in T75 flask maintained in an incubator at 37° C., 5% CO2. Complete media composition: M199 media (#11150-059, life technologies)+10% FBS (#10437-028, life technologies)+1% Fibroblast Growth Supplement-2 (#2382, ScienCell)+1% penicillin/streptomycin 10,000 U/ml antibiotics (#15140-122, Life Technologies). Fresh complete media was replenished every alternate day until culture reached 70% confluence in which media is replenished daily until it reached approximately 90% confluence in order to passage/subculture. To subculture, media was discarded and culture was rinsed with warm PBS. After which, culture was detached using warm 0.05% Trypsin+EDTA with gentle swirling of flask to make sure cells were not adherent to surface of flask. Trypsin was then neutralized with complete media and suspension was then transferred into a new falcon tube and centrifuged at 1000 rpm for 5 minutes. Supernatant was discarded and pellet of cells were resuspended with 5 ml of complete media, followed by cell counting. For subculturing/passaging, 1 million HCFs are placed into a T75 flask. For Picrosirius Red (PSR) staining or immunofluorescence experiments, 100 k cells were loaded per well in a 24 well plate lined with round coverslips. […]\nOnce treatment is complete, cells were washed with warm PBS and detached using Accutase (A6964, Sigma), with 5 minutes incubation at 37° C. […] The supernatant (˜20 ul) was transferred to a new tube and protein concentrations were measured using Biorad Lowry protein assay. Protein quantification of respective markers were performed via standard western blot analysis. […]",
  "data": [
    {"smiles": "CC[C@H](C)[C@H](NC(=O)[C@H](Cc1ccc(O)cc1)NC(=O)[C@@H](NC(=O)C[C@H](CCCNC(=N)N)NC(=O)[C@@H](N)CC(=O)O)C(C)C)C(=O)N[C@@H](Cc1c[nH]cn1)C(=O)N1CCC[C@H]1C(=O)N[C@@H](Cc1ccccc1)C(=O)O", "note": "[βArg-Ang II, Asp-β-Arg-Val-Tyr-Ile-His-Pro-Phe]", "values": [
      {"measurement": "TGF-β1-induced collagen production", "result": "inhibited the TGF-β1-mediated pro-fibrotic phenotype"}
    ]}
  ]
}
